Columns and labels:
[1] = test system: artificially expressed HSP27 protein; assay: ELISA binding experiment between HSP27 protein and biotin-conjugated small molecules; settings: 100 ng/mL biotin-conjugated small molecule; HSP27 coated in gradient from 100 μg/mL
Experimental: 1. The bacteria solution of BL21 (DE3) host bacteria of artificially expressed HSP27 was subjected to ultrasonication, and then coated in gradient on a ELISA plate with an initial concentration of 100 μg/mL (based on the protein) in an amount of 50 μL/well;
2. 100 ng/mL of small molecules conjugated biotin was added into the resultant ELISA plate in an amount of 50 μL/well, mixed well on a shaker, and incubated at 37° C. for 30 min in the dark; the ELISA plate was washed with an ELISA plate washing machine for 4 times, or the liquid in the wells of the ELISA plate was manually removed by shaking out, each well was filled with diluted buffer solution, and then shaken out the liquid to dry again, and washing as repeated in this way for 4 times;
3. HRP-labeled streptavidin conjugate was added into the ELISA plate, and the reaction was carried out at 37° C. for 30 min; washing was performed in the same way as the above step for 4 times.
4. TMB solution was added into corresponding microwells according to the required amount of 100 μL per well, and the plate was shaken on the ELISA plate shaker for 30 s, and subjected to color development at room temperature for 10 min;
5. 50 μL of 2 mol/L sulfuric acid was added to each well to terminate the reaction, and the plate was shaken on the ELISA plate shaker for 30 s, and then the absorbance at 450 nm of each well was read with a microplate reader, and the results were judged (see FIG. 2 for the results).

[2] = test system: HSP27 polyclonal antiserum; assay: ELISA identification of artificially expressed HSP27 protein with HSP27 polyclonal antiserum; type: binding; settings: HSP27 1 μg/mL
Experimental: The artificially expressed HSP27 protein at an optimal concentration was selected as a coating antigen, and coated on the ELISA plate in an amount of 50 μL/well. The plate was placed in a 37° C. constant temperature incubator for reaction for 2 h, washed with PBST for 4 times, and air-dried at room temperature. BSA with a mass fraction of 1% was added as a blocking solution in amount of 200 μL/well, and reaction was carried out at a constant temperature of 37° C. for 1 h. The resultant plate was washed with PBST for 4 times, and air-dried at room temperature. Then, HSP27 polyclonal antiserum with gradient concentrations was added at 50 μL/well, a negative control (NC) was set, and the plate was held at 37° C. for 30 min, and washed for 4 times. 50 μL of goat anti-mouse secondary antibody (1:1000) was added to each well, and the plate was held at 37° C. for 30 min, and then washed for 4 times. The color development reaction was carried out with TMB color developing solution in an amount of 100 μL/well, and 10 minutes later, the reaction was terminated with 50 μL of 2 mol/L H2SO4. The absorbance of each well was read at 450 nm with a microplate reader.

In the case of `CC(CCc1ccc(O)cc1)NCC(O)c1ccc(O)cc1` (racemic) [Ractopamine], the “binding to HSP27 (ELISA, absorbance at 450 nm, FIG. 2)” value (“binding to HSP27” for short) [1] is reported as “can bind to HSP27”.

For “artificially expressed HSP27 protein: HSP27 CDS cloned in pLSLa vector, expressed in BL21 (DE3) with IPTG, purified by agarose resin column”, the “absorbance at 450 nm” value ([2]; serum dilution ratio 5000) was 4.00, the “absorbance at 450 nm” value ([2]; serum dilution ratio 10000) was 3.92 and the “absorbance at 450 nm” value ([2]; serum dilution ratio 20000) was 4.00. The “absorbance at 450 nm” value ([2]; serum dilution ratio 40000) was 3.77, the “absorbance at 450 nm” value ([2]; serum dilution ratio 80000) was 3.50 and the “absorbance at 450 nm” value ([2]; serum dilution ratio 160000) was 2.60. The “absorbance at 450 nm” value ([2]; serum dilution ratio 320000) was 1.63, the “absorbance at 450 nm” value ([2]; serum dilution ratio 640000) was 0.97 and the “absorbance at 450 nm” value ([2]; serum dilution ratio 1280000) was 0.67. For the same compound, the “absorbance at 450 nm” value ([2]; serum dilution ratio 2560000) was 0.51.

For `CC(C)(C)NCC(O)c1cc(Cl)c(N)c(Cl)c1` (stereo not shown) [Clenbuterol], the “binding to HSP27” value [1] was “can bind to HSP27”.

With `CC(Cc1ccc(O)cc1)NCC(O)c1cc(O)cc(O)c1` (stereo not shown) [Fenoterol] the “binding to HSP27” value [1] was “can bind to HSP27”.
